Measured values taken from patent publication US20110086759A1, “CHEMICAL COMPOUNDS” (SYNGENTA CROP PROTECTION, INC., priority 2007, published 2011).

What was measured:
Assay type in all cases: in vivo
[1] = test system: Alopecurus myosuroides (ALOMY); test: Pre-emergence biological efficacy, glasshouse pot test; conditions: 312 h
Method: (§1) Seeds of Alopecurus myosuroides (ALOMY), Setaria faberi (SETFA), Echinochloa crus-galli (ECHCG), Solanum nigrum (SOLNI), Amaranthus retoflexus (AMARE) and Ipomea hederaceae (IPOHE) were sown in standard soil in pots. After cultivation for one day under controlled conditions in a glasshouse (at 24/16° C., day/night; 14 hours light; 65% humidity), the plants were sprayed with an aqueous spray solution derived from the formulation of the technical active ingredient in acetone/water (50:50) solution containing 0.5% Tween 20 (polyoxyethelyene sorbitan monolaurate, CAS RN 9005-64-5) to give a final dose of 1000 or 250 g/ha of test compound.
(§2) The test plants were then grown under controlled conditions in the glasshouse (at 24/16° C., day/night; 14 hours light; 65% humidity) and watered twice daily. After 13 days the test was evaluated (100=total damage to plant; 0=no damage to plant).

[2] = test system: Amaranthus retoflexus (AMARE); test: as above; conditions: Amaranthus retroflexus, 312 h; pre-emergence, 1,000 g/ha, evaluated after 13 days (100=total damage; 0=no damage); read-out: Percentage damage AMARE
Method: as §1, §2

[3] = test system: Echinochloa crus-galli (ECHCG); test: as above; conditions: 312 h
Method: as §1, §2

[4] = test system: Ipomea hederaceae (IPOHE); test: as above; conditions: Ipomoea hederacea, 312 h
Method: as §1, §2

Setaria faberi (SETFA) [5] = test: as above; conditions: 312 h
Method: as §1, §2

Solanum nigrum (SOLNI) [6] = test: as above; conditions: 312 h, pre-emergence, 1,000 g/ha, evaluated after 13 days (100=total damage; 0=no damage), read-out: Percentage damage SOLNI
Method: as §1, §2

[7] = test system: Alopecurus myosuroides (ALOMY); test: Post-emergence biological efficacy, glasshouse pot test; conditions: 312 h
Method: as §1, with “8 days” for “one day”
(§3) The test plants were then grown on under controlled conditions in a glasshouse (at 24/16° C., day/night; 14 hours light; 65% humidity) and watered twice daily. After 13 days the test was evaluated (100=total damage to plant; 0=no damage to plant).

[8] = test system: Amaranthus retoflexus (AMARE); test: as above; conditions: Amaranthus retroflexus, 312 h
Method: as §1, with “8 days” for “one day”
as §3

[9] = test system: Echinochloa crus-galli (ECHCG); test: as above; conditions: 312 h
Method: as §1, with “8 days” for “one day”
as §3

[10] = test system: Ipomea hederaceae (IPOHE); test: as above; conditions: Ipomoea hederacea, 312 h
Method: as §1, with “8 days” for “one day”
as §3

Setaria faberi (SETFA) [11] = test: as above; conditions: 312 h
Method: as §1, with “8 days” for “one day”
as §3

Solanum nigrum (SOLNI) [12] = test: as above; conditions: 312 h
Method: as §1, with “8 days” for “one day”
as §3

[13] = pre-emergence, 1,000 g/ha, evaluated after 13 days (100=total damage; 0=no damage), read-out: Percentage damage ALOMY
[14] = pre-emergence, 1,000 g/ha, evaluated after 13 days (100=total damage; 0=no damage), read-out: Percentage damage ECHCG
[15] = pre-emergence, 1,000 g/ha, evaluated after 13 days (100=total damage; 0=no damage), read-out: Percentage damage IPOHE
[16] = pre-emergence, 1,000 g/ha, evaluated after 13 days (100=total damage; 0=no damage), read-out: Percentage damage SETFA
[17] = post-emergence, 1,000 g/ha, evaluated after 13 days (100=total damage; 0=no damage), read-out: Percentage damage caused to weed species, ALOMY
[18] = post-emergence, 1,000 g/ha, evaluated after 13 days (100=total damage; 0=no damage), read-out: Percentage damage caused to weed species, AMARE
[19] = post-emergence, 1,000 g/ha, evaluated after 13 days (100=total damage; 0=no damage), read-out: Percentage damage caused to weed species, ECHCG
[20] = post-emergence, 1,000 g/ha, evaluated after 13 days (100=total damage; 0=no damage), read-out: Percentage damage caused to weed species, IPOHE
[21] = post-emergence, 1,000 g/ha, evaluated after 13 days (100=total damage; 0=no damage), read-out: Percentage damage caused to weed species, SETFA
[22] = post-emergence, 1,000 g/ha, evaluated after 13 days (100=total damage; 0=no damage), read-out: Percentage damage caused to weed species, SOLNI

Compound | pest or weed control at 1000 g/ha [1, 13] [%] | pest or weed control at 1000 g/ha [2] [%] | pest or weed control at 1000 g/ha [3, 14] [%] | pest or weed control at 1000 g/ha [4, 15] [%] | pest or weed control at 1000 g/ha (Setaria faberi (SETFA) [5]; [16]) [%] | pest or weed control at 1000 g/ha (Solanum nigrum (SOLNI) [6]) [%] | pest or weed control at 1000 g/ha [7, 17] [%] | pest or weed control at 1000 g/ha [8, 18] [%] | pest or weed control at 1000 g/ha [9, 19] [%] | pest or weed control at 1000 g/ha [10, 20] [%] | pest or weed control at 1000 g/ha (Setaria faberi (SETFA) [11]; [21]) [%] | pest or weed control at 1000 g/ha (Solanum nigrum (SOLNI) [12]; [22]) [%] | also measured
COC(=O)c1nc(C2CC2)nc(N[C@H]2CCCC[C@@H]2O)c1Cl (relative stereo) [4-36 (trans), 5-Chloro-2-cyclopropyl-4-(trans-2-hydroxycyclohexyl-amino)-6-methoxy-carbonylpyrimidine] | 10 | 80 | 20 | 60 | 20 | 70 | 20 | 80 | 10 | 40 | 20 | 70 | 
COC(=O)c1nc(C2CC2)nc(NC2(/C=C/c3ccccc3)CC2)c1Cl [4-19 (E), 5-Chloro-2-cyclopropyl-6-methoxycarbonyl-4-[1-(2-phenyl-ethenyl)-cyclo-propylamino]-pyrimidine] | 20 | 40 | 20 | 80 | 20 | 60 | 20 | 100 | 40 | 100 | 70 | 80 | 
COC(=O)c1nc(C2CC2)nc(NC2(/C=C\c3ccccc3)CC2)c1Cl [4-19 (Z), 5-Chloro-2-cyclopropyl-6-methoxycarbonyl-[(Z)-1-(2-phenylethenyl)-cyclopropylamino]-pyrimidine] | 20 | 90 | 20 | 90 | 0 | 40 | 10 | 100 | 30 | 100 | 60 | 90 | 
COC(=O)c1nc(C2CC2)nc(N[C@@H]2c3ccccc3C[C@@H]2O)c1Cl [4-37 (1R,2S), 5-Chloro-2-cyclopropyl-4-[(1R, 2S)-2-hydroxy-indan-1-ylamino]-6-methoxycarbonyl-pyrimidine] | 50 | 100 | 60 | 100 | 80 | 100 | 30 | 100 | 60 | 100 | 70 | 100 | 
COC(=O)c1nc(C2CC2)nc(N[C@H]2c3ccccc3C[C@H]2O)c1Cl [4-37 (1S,2R), 5-Chloro-2-cyclopropyl-4-[(1S, 2R)-2-hydroxy-indan-1-ylamino]-6-methoxycarbonyl-pyrimidine] | 30 | 100 | 40 | 80 | 60 | 90 | 50 | 100 | 60 | 50 | 60 | 100 | 
COC(=O)c1nc(C2CC2)nc(NCCC2=CCCCC2)c1Cl [Compound 4-215, 5-Chloro-4-[2-(cyclohex-1-enyl)ethylamino]-2-cyclopropyl-6-methoxycarbonyl-pyrimidine] | 10 | 100 | 20 | 90 | 20 | 90 | 20 |  | 30 | 80 | 50 | 100 | 
COC(=O)c1nc(C2CC2)nc(NCC(F)c2cccc(Br)c2)c1Cl (stereo not shown) [Compound 4-235, 4-[2-(3-Bromophenyl)-2-fluoro-ethylamino]-5-chloro-2-cyclopropyl-6-methoxycarbonyl-pyrimidine] | 0 |  | 0 | 0 | 0 |  | 0 | 100 | 30 | 70 | 20 | 60 | 
COC(=O)c1nc(-c2ccc(OC)c(F)c2)nc(NCc2ccco2)c1Cl [Compound 253-48, 5-Chloro-2-(3-fluoro-4-methoxyphenyl)-4-(furan-2-yl-methyl-amino)-6-methoxy-carbonylpyrimidine] |  |  |  |  |  |  |  |  |  |  |  |  | pest or weed control at 1000 g/ha ([1]; pre-emergence, rate 1,000 g/ha, evaluated after 13 days (100=total damage to plant; 0=no damage), read-out: Percentage damage caused to weed species, ALOMY): 0%; pest or weed control at 1000 g/ha ([3]; pre-emergence, rate 1,000 g/ha, evaluated after 13 days (100=total damage to plant; 0=no damage), read-out: Percentage damage caused to weed species, ECHCG): 0%; pest or weed control at 1000 g/ha ([4]; pre-emergence, rate 1,000 g/ha, evaluated after 13 days (100=total damage to plant; 0=no damage), read-out: Percentage damage caused to weed species, IPOHE): 0%; pest or weed control at 1000 g/ha (Setaria faberi (SETFA) [5]; pre-emergence, rate 1,000 g/ha, evaluated after 13 days (100=total damage to plant; 0=no damage), read-out: Percentage damage caused to weed species, SETFA): 0%; pest or weed control at 1000 g/ha ([7]; Rate 1,000 g/ha, post-emergence spray, evaluated after 13 days (100=total damage to plant; 0=no damage to plant), read-out: Percentage damage caused to weed species, post-emergence, ALOMY): 0%; pest or weed control at 1000 g/ha ([8]; Rate 1,000 g/ha, post-emergence spray, evaluated after 13 days (100=total damage to plant; 0=no damage to plant), read-out: Percentage damage caused to weed species, post-emergence, AMARE): 70%; pest or weed control at 1000 g/ha ([9]; Rate 1,000 g/ha, post-emergence spray, evaluated after 13 days (100=total damage to plant; 0=no damage to plant), read-out: Percentage damage caused to weed species, post-emergence, ECHCG): 0%; pest or weed control at 1000 g/ha ([10]; Rate 1,000 g/ha, post-emergence spray, evaluated after 13 days (100=total damage to plant; 0=no damage to plant), read-out: Percentage damage caused to weed species, post-emergence, IPOHE): 20%; pest or weed control at 1000 g/ha (Setaria faberi (SETFA) [11]; Rate 1,000 g/ha, post-emergence spray, evaluated after 13 days (100=total damage to plant; 0=no damage to plant), read-out: Percentage damage caused to weed species, post-emergence, SETFA): 0%; pest or weed control at 1000 g/ha (Solanum nigrum (SOLNI) [12]; Rate 1,000 g/ha, post-emergence spray, evaluated after 13 days (100=total damage to plant; 0=no damage to plant), read-out: Percentage damage caused to weed species, post-emergence, SOLNI): 40%
